# From PubChem BioAssay (NCI)
#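 All cell lines were grown in 96-well plates and treated with compound for 48 hours. Definition used: TGI = concentration required for complete inhibition of growth.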
# Columns and labels:
# Assay in all cases: growth of human tumour cells (NCI), 48 h
# SNB-19 CNS = test system: SNB-19 CNS
# NCI-H23 lung = test system: NCI-H23 lung
# RPMI-8226 leukemia = test system: RPMI-8226 leukemia
# HCT-116 colon = test system: HCT-116 colon
# OVCAR-3 ovarian = test system: OVCAR-3 ovarian
# MALME-3M melanoma = test system: MALME-3M melanoma
# SNB-75 CNS = test system: SNB-75 CNS
# CCRF-CEM leukemia = test system: CCRF-CEM leukemia
# LOX IMVI melanoma = test system: LOX IMVI melanoma
# ACHN renal = test system: ACHN renal
# HOP-62 NSCLC = test system: HOP-62 NSCLC
# SR leukemia = test system: SR leukemia
# UO-31 renal = test system: UO-31 renal
# PC-3 prostate = test system: PC-3 prostate
# SK-OV-3 ovarian = test system: SK-OV-3 ovarian
# A549 NSCLC = test system: A549 NSCLC
# MDA-MB-435 = test system: MDA-MB-435
# SW-620 colon = test system: SW-620 colon
# OVCAR-8 ovarian = test system: OVCAR-8 ovarian
# HL-60(TB) leukemia = test system: HL-60(TB) leukemia
# SK-MEL-5 melanoma = test system: SK-MEL-5 melanoma
# OVCAR-5 ovarian = test system: OVCAR-5 ovarian
# K-562 leukemia = test system: K-562 leukemia
# EKVX NSCLC = test system: EKVX NSCLC
# MDA-N = test system: MDA-N
# NCI/ADR-RES ovarian = test system: NCI/ADR-RES ovarian
# NCI-H460 lung = test system: NCI-H460 lung
# HCT-15 colon = test system: HCT-15 colon
# SF-295 CNS = test system: SF-295 CNS
# HOP-92 NSCLC = test system: HOP-92 NSCLC
# U251 CNS = test system: U251 CNS
# MDA-MB-231 breast = test system: MDA-MB-231 breast
# A498 renal = test system: A498 renal
# SK-MEL-2 melanoma = test system: SK-MEL-2 melanoma
# BT-549 breast = test system: BT-549 breast
# 786-0 renal = test system: 786-0 renal
# SN12C renal = test system: SN12C renal
# M14 melanoma = test system: M14 melanoma
# MCF7 breast = test system: MCF7 breast
# MOLT-4 leukemia = test system: MOLT-4 leukemia
# RXF 393 renal = test system: RXF 393 renal
# COLO 205 colon = test system: COLO 205 colon
# NCI-H226 lung = test system: NCI-H226 lung
# SK-MEL-28 melanoma = test system: SK-MEL-28 melanoma
# HT29 colon = test system: HT29 colon
# HS 578T breast = test system: HS 578T breast
# DU-145 prostate = test system: DU-145 prostate
# IGROV1 ovarian = test system: IGROV1 ovarian
# UACC-62 melanoma = test system: UACC-62 melanoma
# NCI-H522 lung = test system: NCI-H522 lung
# SF-268 CNS = test system: SF-268 CNS
# CAKI-1 renal = test system: CAKI-1 renal
# TK-10 renal = test system: TK-10 renal
# OVCAR-4 ovarian = test system: OVCAR-4 ovarian
# HCC-2998 colon = test system: HCC-2998 colon
# T-47D breast = test system: T-47D breast
# KM12 colon = test system: KM12 colon
# SF-539 CNS = test system: SF-539 CNS
# UACC-257 melanoma = test system: UACC-257 melanoma
smiles,measurement,setting,value
CCN(CC)c1ccc(/C=C(\C#N)c2nc(N)nc(N3N=C(C)CC3(C)C)n2)cc1,TGI,SNB-19 CNS,37.1 µM
same,TGI,NCI-H23 lung,> 80.9 µM
same,TGI,RPMI-8226 leukemia,> 100 µM
same,TGI,HCT-116 colon,34.1 µM
same,TGI,OVCAR-3 ovarian,37.9 µM
same,TGI,MALME-3M melanoma,41 µM
same,TGI,SNB-75 CNS,28.8 µM
same,TGI,CCRF-CEM leukemia,> 100 µM
same,TGI,LOX IMVI melanoma,32.7 µM
same,TGI,ACHN renal,27.9 µM
same,TGI,HOP-62 NSCLC,23.6 µM
same,TGI,SR leukemia,> 100 µM
same,TGI,UO-31 renal,55.4 µM
same,TGI,PC-3 prostate,> 100 µM
same,TGI,SK-OV-3 ovarian,19.9 µM
same,TGI,A549 NSCLC,32.3 µM
same,TGI,MDA-MB-435,> 100 µM
same,TGI,SW-620 colon,> 100 µM
same,TGI,OVCAR-8 ovarian,24.4 µM
same,TGI,HL-60(TB) leukemia,> 100 µM
same,TGI,SK-MEL-5 melanoma,> 61 µM
same,TGI,OVCAR-5 ovarian,93.9 µM
same,TGI,K-562 leukemia,> 68.7 µM
same,TGI,EKVX NSCLC,> 76.2 µM
same,TGI,MDA-N,> 100 µM
same,TGI,NCI/ADR-RES ovarian,> 49.4 µM
same,TGI,NCI-H460 lung,44.5 µM
same,TGI,HCT-15 colon,> 100 µM
same,TGI,SF-295 CNS,49.7 µM
same,TGI,HOP-92 NSCLC,22.4 µM
same,TGI,U251 CNS,26.1 µM
same,TGI,MDA-MB-231 breast,26.8 µM
same,TGI,A498 renal,35.2 µM
same,TGI,SK-MEL-2 melanoma,34.1 µM
same,TGI,BT-549 breast,> 100 µM
same,TGI,786-0 renal,26.8 µM
same,TGI,SN12C renal,71.2 µM
same,TGI,M14 melanoma,> 45.5 µM
same,TGI,MCF7 breast,> 100 µM
same,TGI,MOLT-4 leukemia,> 100 µM
same,TGI,RXF 393 renal,23.7 µM
same,TGI,COLO 205 colon,> 100 µM
same,TGI,NCI-H226 lung,14.6 µM
same,TGI,SK-MEL-28 melanoma,> 100 µM
same,TGI,HT29 colon,> 49.2 µM
same,TGI,HS 578T breast,11.4 µM
same,TGI,DU-145 prostate,29.3 µM
same,TGI,IGROV1 ovarian,34.2 µM
same,TGI,UACC-62 melanoma,> 100 µM
same,TGI,NCI-H522 lung,36.5 µM
same,TGI,SF-268 CNS,> 54 µM
same,TGI,CAKI-1 renal,28.4 µM
same,TGI,TK-10 renal,31.7 µM
same,TGI,OVCAR-4 ovarian,30.5 µM
same,TGI,HCC-2998 colon,79.1 µM
same,TGI,T-47D breast,39.6 µM
same,TGI,KM12 colon,> 100 µM
same,TGI,SF-539 CNS,19.9 µM
same,TGI,UACC-257 melanoma,> 100 µM
COc1cc2oc(=O)cc(C)c2cc1[N+](=O)[O-],TGI,SNB-19 CNS,> 100 µM
same,TGI,NCI-H23 lung,51.5 µM
same,TGI,RPMI-8226 leukemia,> 75.3 µM
same,TGI,HCT-116 colon,32.3 µM
same,TGI,OVCAR-3 ovarian,64.1 µM
same,TGI,MALME-3M melanoma,49.5 µM
same,TGI,SNB-75 CNS,> 100 µM
same,TGI,CCRF-CEM leukemia,> 100 µM
same,TGI,LOX IMVI melanoma,28.6 µM
same,TGI,ACHN renal,> 100 µM
same,TGI,HOP-62 NSCLC,> 100 µM
same,TGI,SR leukemia,> 100 µM
same,TGI,UO-31 renal,> 87.6 µM
same,TGI,PC-3 prostate,> 67.6 µM
same,TGI,SK-OV-3 ovarian,> 100 µM
same,TGI,A549 NSCLC,> 100 µM
same,TGI,MDA-MB-435,46.8 µM
same,TGI,SW-620 colon,> 64.1 µM
same,TGI,OVCAR-8 ovarian,40.7 µM
same,TGI,HL-60(TB) leukemia,44 µM
same,TGI,SK-MEL-5 melanoma,> 65.1 µM
same,TGI,OVCAR-5 ovarian,> 79 µM
same,TGI,K-562 leukemia,> 100 µM
same,TGI,EKVX NSCLC,> 100 µM
same,TGI,MDA-N,28.4 µM
same,TGI,NCI/ADR-RES ovarian,> 79.3 µM
same,TGI,NCI-H460 lung,> 100 µM
same,TGI,HCT-15 colon,44.4 µM
same,TGI,SF-295 CNS,> 100 µM
same,TGI,HOP-92 NSCLC,57.1 µM
same,TGI,U251 CNS,> 100 µM
same,TGI,MDA-MB-231 breast,71.6 µM
same,TGI,A498 renal,> 84 µM
same,TGI,SK-MEL-2 melanoma,58 µM
same,TGI,BT-549 breast,35.9 µM
same,TGI,786-0 renal,49.5 µM
same,TGI,SN12C renal,37.2 µM
same,TGI,M14 melanoma,37.9 µM
same,TGI,MCF7 breast,> 100 µM
same,TGI,MOLT-4 leukemia,60.9 µM
same,TGI,RXF 393 renal,33.8 µM
same,TGI,COLO 205 colon,> 60.6 µM
same,TGI,NCI-H226 lung,26.9 µM
same,TGI,SK-MEL-28 melanoma,64.6 µM
same,TGI,HT29 colon,> 57.8 µM
same,TGI,HS 578T breast,> 90.3 µM
same,TGI,DU-145 prostate,> 100 µM
same,TGI,IGROV1 ovarian,> 84.8 µM
same,TGI,UACC-62 melanoma,34.6 µM
same,TGI,NCI-H522 lung,26.3 µM
same,TGI,SF-268 CNS,45 µM
same,TGI,CAKI-1 renal,> 51.5 µM
same,TGI,TK-10 renal,83.6 µM
same,TGI,OVCAR-4 ovarian,84.1 µM
same,TGI,HCC-2998 colon,22.2 µM
same,TGI,T-47D breast,77.2 µM
same,TGI,KM12 colon,> 57.3 µM
same,TGI,SF-539 CNS,57.7 µM
same,TGI,UACC-257 melanoma,33.5 µM
